{
  "source": "patent US20110263720A1",
  "about": "“SYNTHESIS OF ALPHA-TOCOPHEROLQUINONE DERIVATIVES, AND METHODS OF USING THE SAME” (Penwest Pharmaceuticals Co., priority 2010, published 2011)",
  "origin": "cited, not measured here",
  "system": "mitochondrial function",
  "conditions": "in vitro; compared with CoQ10; background statement, no data",
  "data": [
    {"smiles": "CC1=C(C)C(=O)C(CC[C@](C)(O)CCC[C@H](C)CCC[C@H](C)CCCC(C)C)=C(C)C1=O", "note": "[R,R,R-alpha-tocopherolquinone]", "values": [
      {"measurement": "potency in enhancing mitochondrial function", "result": "far more potent than CoQ^10"}
    ]}
  ]
}
